# In paper PMC12381739, “Druglike Molecular Degraders of the Oncogenic RNA-Binding Protein HuR” (JACS Au, 2025):
# How the values were obtained:
# HuR [1] = target: T1, HuR (Homo sapiens, UniProt Q15717); test: Fluorescence binding assay using intrinsic fluorescence of the PROTAC with titrated HuR protein; conditions: fixed 100 μM degrader, increasing HuR; fluorescence rises over 0.0075–0.1 nM and 0.125–1 nM
# Protocol: To elucidate the mechanism underlying the observed biphasic degradation pattern, we generated a docking model using the Schrödinger software. […] This preferential binding correlates with the initial phase of degradation observed at low degrader concentrations (5 nM to 100 nM; Figures B and B and ). At higher degrader concentrations (e.g., 10 μM), different complex engagement may occur at the P2 RNA-binding pocket. […] Unlike the previous displacement assay–which monitored competition between labeled RNA and HuR–we utilized the intrinsic fluorescence of the PROTAC derivative at a fixed concentration while titrating HuR protein. This approach allowed us to detect fluorescence changes corresponding to HuR binding events. […] Fluorescence increased over two separate concentration ranges–0.0075–0.1 nM and 0.125–1 nM–with a clear dip between 0.1 and 0.125 nM. […]
# As part of the dual-binding evaluation, Pro-HuR3 fluorescence was first characterized across a concentration range (1–100 μM; 1, 2, 5, 10, 20, 50, and 100 μM). The assays were performed in PBS buffer (20 mM sodium phosphate, 150 mM NaCl, 1 mM dithiothreitol, 0.05% PLURONIC-127, 15% DMSO) at 293 K. Fluorescence spectra were recorded using the Synergy H1 Hybrid Multi-Mode Microplate Reader (Biotek, Agilent), with excitation and emission scans identifying optimal wavelengths of 405–415 nm (excitation) and 520 nm (emission), respectively. […]
# HuR [2] = target: T1, HuR; test: HuR western blot, dose-dependent treatment (Figure S7, cell line not stated); format: cell-based; parameters: endogenous in cells; host or cells: MCF-7 or MDA-MB-231 (not given); conditions: 48 h, normalized to vinculin
# Protocol: MDA-MB-231 and MCF-7 cells were seeded in 6-well plates at approximately 60% confluency in complete growth medium and treated with synthesized compounds at the indicated concentrations or with vehicle for 24 h. Total protein was extracted using RIPA cell lysis buffer (BioPrep) containing a protease inhibitor, and protein concentration was measured using the BCA protein assay (Sigma-Aldrich) according to the manufacturer’s protocol. Approximately 30 μg of total protein were resolved on a 12% SDS-acrylamide gel and transferred to a PVDF membrane (Immobilon FL transfer membrane; Merck). The membrane was washed with 1× Tris-buffered saline (TBS) containing 0.1% (v/v) Tween-20 (TBST; Tris-base, pH 7.6, NaCl, and Tween-20) and blocked in 1× TBST containing 5% (w/v) BSA for 2 h at room temperature. The membrane was then incubated overnight at 4 °C with primary antibodies: a 1:1000 dilution of rabbit anti-ELAVL1/HuR (Cell Signaling Technology, #12582), a 1:1000 dilution of mouse anti-Bcl2 (Cell Signaling Technology, #15071), or a 1:10,000 dilution of rabbit anti-Vinculin (Cell Signaling Technology, #13901) in 1× TBST containing 5% (w/v) BSA. […] The fold change in the expression of the target proteins (HuR or Bcl2) was calculated by normalizing the band intensity to the Vinculin band intensity using ImageJ. […]
# HuR [3] = target: T1, HuR; test: Proteasome inhibitor (bortezomib, MG132) mechanistic validation of HuR degradation in MCF-7 cells; format: cell-based; parameters: endogenous in cells; host or cells: MCF-7; conditions: MCF-7, with bortezomib or MG132
# Protocol: MCF-7 cells were seeded in 6-well plates at approximately 60% confluency and incubated for 12 h. The cells were then treated with 1 μM of the proteasome inhibitors Bortezomib (Thermo Fisher Scientific, CAS: 179324-69-7) and MG132 (Aaron Chemicals, CAS: 1211877-36-9). After treatment, the synthesized compounds were added at a concentration of 10 μM, and the cells were incubated for 5 h.
# Bcl2 and FOXQ1 mRNA = test: mRNA RT-qPCR of Bcl2 and FOXQ1 in MCF-7 cells; format: cell-based, human
# Protocol: MCF-7 cells were seeded into 12-well plates (∼150,000 cells per well) at 60–70% confluency incubated for 12 h. The cells were then treated with different synthesized compounds at the indicated concentrations or with vehicle control for 24 and 48 h. After treatment, total RNA was extracted using the QuickRNA Miniprep Kit (Zymo Research) according to the manufacturer’s protocol, including DNase I treatment. Reverse transcription was performed on 1 μg of total RNA using the qScript cDNA Synthesis Kit (Quantabio) following the manufacturer’s instructions. Approximately 30 ng of cDNA were used for each qPCR reaction, which was carried out using the Luna Universal qPCR Master Mix (New England BioLabs, cat# E3010G) on a CFX Opus 384 Real-Time PCR System. Relative expression levels of Bcl-2 and FOXQ1 were calculated by normalizing to GAPDH expression using the ΔΔCt method.
# T1 sequence (Q15717 whole entry): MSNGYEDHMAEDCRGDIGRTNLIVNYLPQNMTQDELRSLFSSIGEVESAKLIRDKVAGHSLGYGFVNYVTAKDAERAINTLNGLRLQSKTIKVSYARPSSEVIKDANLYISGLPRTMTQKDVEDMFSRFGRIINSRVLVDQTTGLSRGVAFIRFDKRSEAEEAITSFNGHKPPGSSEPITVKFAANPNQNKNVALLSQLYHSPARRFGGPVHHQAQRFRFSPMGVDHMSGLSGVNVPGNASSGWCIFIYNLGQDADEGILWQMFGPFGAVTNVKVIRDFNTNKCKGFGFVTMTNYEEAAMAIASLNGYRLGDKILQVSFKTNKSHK
compound,measurement,setting,value
O=C1CCC(N2C(=O)c3cccc(NCc4cn(-c5ccc6sc(C(=O)O)cc6c5)nn4)c3C2=O)C(=O)N1 (stereo not drawn) [PRO-HuR3],binding response on HuR titration (intrinsic fluorescence),HuR [1],two distinct IC50 values
same,HuR protein level relative to UT,HuR [2]; 0.01 nM,113%
same,HuR protein level relative to UT,HuR [2]; 0.1 nM,108%
same,degrader activity under 26S proteasome inhibition,HuR [3],completely impaired
same,Bcl2 mRNA expression relative to lower concentrations,"Bcl2 and FOXQ1 mRNA; MCF-7, 1 μM",increase in Bcl2 expression
same,Bcl2 and FOXQ1 mRNA expression,"Bcl2 and FOXQ1 mRNA; MCF-7, concentrations ranging from 1 nM to 100 nM",decrease in the expression of both genes
